For the assay, the target named is T1, human Branched Chain Amino Acid Aminotransferase cytosolic form (hBCATc) (Homo sapiens, UniProt P54687).
T1 construct: inferred from purification on a Ni-charged chelating column with imidazole elution; made in house; host or cells: E. coli BL21(DE3)
T1 sequence (P54687 1-386): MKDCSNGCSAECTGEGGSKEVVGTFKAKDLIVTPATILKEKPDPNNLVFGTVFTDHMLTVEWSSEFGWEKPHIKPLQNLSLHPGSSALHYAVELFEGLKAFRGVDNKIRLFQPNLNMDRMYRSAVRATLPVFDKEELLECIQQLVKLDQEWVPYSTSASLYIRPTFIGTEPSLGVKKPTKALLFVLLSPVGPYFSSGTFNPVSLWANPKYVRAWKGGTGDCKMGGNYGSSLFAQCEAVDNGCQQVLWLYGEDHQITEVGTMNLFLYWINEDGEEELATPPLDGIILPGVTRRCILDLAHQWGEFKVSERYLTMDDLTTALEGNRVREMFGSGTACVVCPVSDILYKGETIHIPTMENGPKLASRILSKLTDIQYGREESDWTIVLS
As to the kind of experiment: In vitro coupled enzyme assay, hBCATc. In kind it is biochemical. The following applies: 37° C.; for IC50: 25 mM phosphate buffer pH 7.8, coupled glutamate dehydrogenase assay, read-out: hBCATc I50; for inhibition at 20 µM: @ 20 μM compound, pH 7.8 coupled assay, read-out: hBCATc Inhibit % @ 20 μM. As for the experimental part:
In vitro enzyme assay—human Branched Chain Amino Acid Aminotransferase cytosolic form (hBCATc) and mitochondrial form (hBCATm) were assayed at 37° C. in 25 mM phosphate buffer pH 7.8. In addition, 2 mM DTT and 12.5 mM EDTA were added to the assay mixture. A coupling enzyme assay was used to monitor the production of glutamate. The formation of NADH from NAD+at […] was followed on a 96-well plate Molecular Devices plate reader. The following components were used in this coupled assay: 4 mM ADP, 1 mM NAD+, 750 μM L-Leucine, 500 μM (α-ketoglutarate, 10 μM pyridoxal phosphate, 1 unit glutamate dehydrogenase, and 1.25 μg of the appropriate BCAT enzyme. Inhibitions by compounds were assayed by adding various concentrations to this coupled assay procedure as a DMSO stock up to a 5% v/v DMSO/buffer ratio. Data is shown in Table 1.
Enzyme Preparation—humanBCATc was expressed in BL21(DE3) cells. A growing culture of cells was induced with 1 mM IPTG at room temperature overnight. These cells were harvested by centrifugation at 10,000 g for 20 minutes. The supernatant was discarded, and the cells were stored at −80° C. until needed. The protein was purified by the following method. The cell paste was resuspended in extraction buffer (0.1 M phosphate, pH 8.0, with 0.01 M Tris-HCL and 5 mM TCEP and then lysed on a French Press at 1000 psi. The lysate was centrifuged at 10,000 g for 15 minutes, and the pellet was discarded. The supernatant was loaded onto a Hitrap Chelating column previously charged with 0.1 M NiSO4 and washed with 3 to 4 column volumes of extraction buffer. The column was then washed with 0.01 Tris, pH 7.5, 10% glycerol, 150 mM NaCl, 5 mM TCEP for two column volumes. The column was then further washed with two column volumes of 0.1 M phosphate, pH 6.0, 0.01 M Tris, 10% glycerol and 750 mM NaCl. Finally, the column was washed with two column volumes of the same buffer plus 50 mM imidazole. The BCAT enzyme was then eluted with the same buffer but with 350 mM imidazole. The eluant was then dialyzed overnight against 10 mM phosphate buffer pH 8.0, 10% glycerol, and 5 mM TCEP. The dialyzed protein was then loaded onto a Q-sepharose column and eluted using a salt gradient. Active fractions were collected and further purified on a Superose-12 column to yield pure BCAT protein.

Values joined by “and” are separate entries in the source; they are usually repeats but may differ in a detail not shown here. Equal values may be shown once.

For the molecule `COC(=O)/C=C1\SC(Nc2c(Cl)cccc2Cl)=NC1=O` [Example 1, [2-(2,6-Dichloro-phenylamino)-4-oxo-4H-thiazol-5-ylidene]-acetic Acid Methyl Ester], the IC50 amounted to 4.1 µM.

Regarding `CCOC(=O)/C=C1\SC(Nc2c(Cl)cccc2Cl)=NC1=O` [Example 2, [2-(2,6-Dichloro-phenylamino)-4-oxo-4H-thiazol-5-ylidene]-acetic Acid Ethyl Ester], the IC50 turned out to be 52.5 µM.

For the molecule `CC(C)(C)OC(=O)/C=C1\SC(Nc2c(Cl)cccc2Cl)=NC1=O` [Example 3, [2-(2,6-Dichloro-phenylamino)-4-oxo-4H-thiazol-5-ylidene]-acetic Acid Tert-butyl Ester], the IC50 was 68.6 µM and 36.9 µM.

Regarding `COC(=O)/C=C1\SC(Nc2ccccc2C)=NC1=O` [Example 4, [2-(2-Methyl-phenylamino)-4-oxo-4H-thiazol-5-ylidene]-acetic Acid Methyl Ester], the IC50 is 43.9 µM and 29.6 µM.

As to `CNC(=O)/C=C1\SC(Nc2c(Cl)cccc2Cl)=NC1=O` [Example 6, [2-(2,6-Dichloro-phenylamino)-4-oxo-4H-thiazol-5-ylidene]-N-methyl-acetamide], the IC50 is 3.1 µM and 1.9 µM.

For `CCNC(=O)/C=C1\SC(Nc2c(Cl)cccc2Cl)=NC1=O` [Example 7, [2-(2,6-Dichloro-phenylamino)-4-oxo-4H-thiazol-5-ylidene]-N-ethyl-acetamide], the IC50 is 13.1 µM and 3.15 µM.

In the case of `CCCNC(=O)/C=C1\SC(Nc2c(Cl)cccc2Cl)=NC1=O` [Example 8, [2-(2,6-Dichloro-phenylamino)-4-oxo-4H-thiazol-5-ylidene]-N-propyl-acetamide], the IC50 was 35.7 µM and 17.4 µM.

With `CONC(=O)/C=C1\SC(Nc2c(Cl)cccc2Cl)=NC1=O` [Example 10, [2-(2,6-Dichloro-phenylamino)-4-oxo-4H-thiazol-5-ylidene]-N-methoxy-acetamide], the IC50 is 31.7 µM.

`COCCNC(=O)/C=C1\SC(Nc2c(Cl)cccc2Cl)=NC1=O` [Example 16, 2-[2-(2,6-Dichloro-phenylamino)-4-oxo-4H-thiazol-5-ylidene]-N-(2-methoxy-ethyl)-acetamide]: the IC50 turned out to be 82.7 µM.

As to `O=C1N=C(Nc2c(Cl)cccc2Cl)S/C1=C\C(=O)N1CCCCC1` [Example 17, 2-(2,6-Dichloro-phenylamino)-5-(2-oxo-2-piperidine-1-yl-ethylidene)-thiazol-4-one], the IC50 came out at 12.8 µM.

As for `CCN1CCN(C(=O)/C=C2\SC(Nc3c(Cl)cccc3Cl)=NC2=O)CC1` [Example 18, 2-(2,6-Dichloro-phenylamino)-5-[2-(4-ethyl-piperazin-1-yl)-2-oxo-ethylidene)-thiazol-4-one], the IC50 was 64.1 µM.

As to `O=C(/C=C1\SC(Nc2c(Cl)cccc2Cl)=NC1=O)NCCCN1CCCC1` [Example 19, 2-[2-(2,6-Dichloro-phenylamino)-4-oxo-4H-thiazol-5-ylidene]-N-(3-pyrrolidin-1-yl-propyl)-acetamide], the IC50 was 55 µM.

Regarding `CC(C)NC(=O)/C=C1\SC(Nc2c(Cl)cccc2Cl)=NC1=O` [Example 20, 2-[2-(2,6-Dichloro-phenylamino)-4-oxo-4H-thiazol-5-ylidene]-N-isopropyl-acetamide], the IC50 was 65.9 µM.

Regarding `O=C1N=C(Nc2c(Cl)cccc2Cl)S/C1=C\C(=O)N1CCCC1` [Example 21, 2-(2,6-Dichloro-phenylamino)-5-(2-oxo-2-pyrrolidin-1-yl-ethylidene)-thiazol-4-one], the IC50 worked out at 13.8 µM.

As to `O=C(/C=C1\SC(Nc2c(Cl)cccc2Cl)=NC1=O)NC1CCCCC1` [Example 22, N-Cyclohexyl-2-[2-(2,6-dichloro-phenylamino)-4-oxo-4H-thiazol-5-ylidene]-acetamide], the IC50 stood at 22.6 µM.

For the molecule `COC(CNC(=O)/C=C1\SC(Nc2c(Cl)cccc2Cl)=NC1=O)OC` [Example 23, 2-[2-(2,6-Dichloro-phenylamino)-4-oxo-4H-thiazol-5-ylidene]-N-(2,2-dimethoxy-ethyl)-acetamide], the IC50 was 39.8 µM.

In the case of `CC1CC(C)CN(C(=O)/C=C2\SC(Nc3c(Cl)cccc3Cl)=NC2=O)C1` (stereo not drawn) [Example 24, 2-(2,6-Dichloro-phenylamino)-5-[2-(3,5-dimethyl-piperidin-1-yl)-2-oxo-ethylidene)-thiazol-4-one], the IC50 amounted to 8.97 µM.

`CN(C)C1CCN(C(=O)/C=C2\SC(Nc3c(Cl)cccc3Cl)=NC2=O)C1` (stereo not drawn) [Example 25, 2-(2,6-Dichloro-phenylamino)-5-[2-(3-dimethylamino-pyrrolidin-1-yl)-2-oxo-ethylidene)-thiazol-4-one]: the IC50 worked out at 65.1 µM.

With `O=C(/C=C1\SC(Nc2c(Cl)cccc2Cl)=NC1=O)NCCOCCO` [Example 26, 2-[2-(2,6-Dichloro-phenylamino)-4-oxo-4H-thiazol-5-ylidene]-N-[2-(2-hydroxy-ethoxy)-ethyl]-acetamide], the IC50 was 56.3 µM.

As for `CSCCCNC(=O)/C=C1\SC(Nc2c(Cl)cccc2Cl)=NC1=O` [Example 27, 2-[2-(2,6-Dichloro-phenylamino)-4-oxo-4H-thiazol-5-ylidene]-N-(3-methylsulfanyl-propyl)-acetamide], the IC50 was found to be 41.2 µM.

In the case of `O=C(/C=C1\SC(Nc2c(Cl)cccc2Cl)=NC1=O)NCC(O)CO` (stereo not drawn) [Example 28, 2-[2-(2,6-Dichloro-phenylamino)-4-oxo-4H-thiazol-5-ylidene]-N-(2,3-dihydroxy-propyl)-acetamide], the IC50 turned out to be 66.9 µM.

For the molecule `C=C(C)CNC(=O)/C=C1\SC(Nc2c(Cl)cccc2Cl)=NC1=O` [Example 29, 2-[2-(2,6-Dichloro-phenylamino)-4-oxo-4H-thiazol-5-ylidene]-N-(2-methyl-allyl)-acetamide], the IC50 came to 31.1 µM.

Turning to `O=C(/C=C1\SC(Nc2c(Cl)cccc2Cl)=NC1=O)NC1CCCC1` [Example 30, N-Cyclopentyl-2-[2-(2,6-dichloro-phenylamino)-4-oxo-4H-thiazol-5-ylidene]-acetamide], the IC50 amounted to 16.6 µM.

With `CCCN(CC1CC1)C(=O)/C=C1\SC(Nc2c(Cl)cccc2Cl)=NC1=O` [Example 31, N-Cyclopropylmethyl-2-[2-(2,6-dichloro-phenylamino)-4-oxo-4H-thiazol-5-ylidene]-N-propyl-acetamide], the IC50 was determined as 11.2 µM.

On to `CN1CCC(N(C)C(=O)/C=C2\SC(Nc3c(Cl)cccc3Cl)=NC2=O)C1` (stereo not drawn) [Example 32, 2-[2-(2,6-Dichloro-phenylamino)-4-oxo-4H-thiazol-5-ylidene]-N-methyl-N-(1-methyl-pyrrolidin-3-yl)-acetamide], for which the IC50 is 89.8 µM.

In the case of `O=C(/C=C1\SC(Nc2c(Cl)cccc2Cl)=NC1=O)NCCOc1ccccc1` [Example 33, 2-[2-(2,6-Dichloro-phenylamino)-4-oxo-4H-thiazol-5-ylidene]-N-(2-phenoxy-ethyl)-acetamide], the IC50 is 40.4 µM.

Regarding `CNCCCCCCCCN(C)C(=O)/C=C1\SC(Nc2c(Cl)cccc2Cl)=NC1=O` [Example 34, 2-[2-(2,6-Dichloro-phenylamino)-4-oxo-4H-thiazol-5-ylidene]-N-methyl-N-(8-methylamino-octyl)-acetamide], the IC50 is 75.6 µM.

In the case of `O=C(/C=C1\SC(Nc2c(Cl)cccc2Cl)=NC1=O)NCc1ccc(Cl)cc1` [Example 35, N-(4-Chloro-benzyl)-2-[2-(2,6-dichloro-phenylamino)-4-oxo-4H-thiazol-5-ylidene]-acetamide], the inhibition at 20 µM came out at 130%.

As to `CC(C)CCC(C)NC(=O)/C=C1\SC(Nc2c(Cl)cccc2Cl)=NC1=O` (stereo not drawn) [Example 37, 2-[2-(2,6-Dichloro-phenylamino)-4-oxo-4H-thiazol-5-ylidene]-N-(1,4-dimethyl-pentyl)-acetamide], the inhibition at 20 µM was found to be 34%.

With `CC(C)CC(C)NC(=O)/C=C1\SC(Nc2c(Cl)cccc2Cl)=NC1=O` (stereo not drawn) [Example 38, 2-[2-(2,6-Dichloro-phenylamino)-4-oxo-4H-thiazol-5-ylidene]-N-(1 ,3-dimethyl-butyl)-acetamide], the inhibition at 20 µM was found to be 33%.

These data come from patent publication US6632831B2, “Branched chain amino acid-dependent aminotransferase inhibitors and their use in the treatment of neurodegenerative diseases” (Pfizer Inc., priority 2001, dated 2003).
